The source of these data is ChEMBL document CHEMBL4011581, “Interference with bile salt export pump function is a susceptibility factor for human liver injury in drug development” (Toxicol Sci, 2010).

For this assay, the target named is Bile salt export pump (Homo sapiens, UniProt O95342). Briefly: Inhibition of human BSEP expressed in fall armyworm sf9 cell plasma membrane vesicles assessed as reduction in vesicle-associated [3H]-taurocholate transport preincubated for 10 mins prior to ATP addition measured after 15 mins in presence of [3H]-taurocholate by topcount based membrane vesicle transport assay. In kind it is ADME.
Regarding `CNC(=O)c1cc(Oc2ccc(NC(=O)Nc3ccc(Cl)c(C(F)(F)F)c3)cc2)ccn1` [SORAFENIB], the IC50 came out at 8 µM.

For `CCOC(=O)C(C)(C)Oc1ccc(Cl)cc1` [CLOFIBRATE], the concentration for half-maximal inhibition (IC50) fell in the range of 60 to 75 µM. Then `CNC1=Nc2ccc(Cl)cc2C(c2ccccc2)=[N+]([O-])C1` [CHLORDIAZEPOXIDE], with 25 to 45 µM. Consider `Nc1cc(-c2ccncc2)c[nH]c1=O` [INAMRINONE], for which the half-inhibitory concentration (IC50) is over 135 µM. As for `COc1ccccc1Oc1c(NS(=O)(=O)c2ccc(C(C)(C)C)cc2)nc(-c2ncccn2)nc1OCCO` [BOSENTAN], the IC50 was found to be 22 µM. Take `CO[C@H]1/C=C/O[C@@]2(C)Oc3c(C)c(O)c4c(c3C2=O)C2=NC3(CCN(CC(C)C)CC3)NC2=C(NC(=O)/C(C)=C\C=C\[C@H](C)[C@H](O)[C@@H](C)[C@@H](O)[C@@H](C)[C@H](OC(C)=O)[C@@H]1C)C4=O` [RIFABUTIN]: the IC50 turned out to be 26.7 µM. Consider `CN1CCc2cccc3c2[C@H]1Cc1ccc(O)c(O)c1-3` [APOMORPHINE], for which the half-maximal inhibitory concentration (IC50) is over 135 µM. For `CCN1CCC[C@H]1CNC(=O)c1c(OC)ccc(Br)c1OC` [REMOXIPRIDE], the half-maximal inhibitory concentration (IC50) was over 135 µM. `CCOC(=O)c1ncn2c1CN(C)C(=O)c1cc(F)ccc1-2` [FLUMAZENIL]: the IC50 is over 135 µM. For the compound `CN1CCN(C2=Nc3cc(Cl)ccc3Nc3ccccc32)CC1` [CLOZAPINE], the 50% inhibitory concentration (IC50) is over 135 µM. As for `CN(Cc1cnc2nc(N)nc(N)c2n1)c1ccc(C(=O)N[C@@H](CCC(=O)O)C(=O)O)cc1` [METHOTREXATE], the IC50 is over 135 µM. Regarding `CCC1(c2ccccc2)C(=O)NC(=O)NC1=O` [PHENOBARBITAL], the IC50 was over 135 µM. On to `CC[C@H]1OC(=O)[C@H](C)C(=O)[C@H](C)[C@@H](O[C@@H]2O[C@H](C)C[C@H](N(C)C)[C@H]2O)[C@](C)(OC)C[C@@H](C)C(=O)[C@H](C)[C@H]2N(CCCCn3cnc(-c4cccnc4)c3)C(=O)O[C@]12C` [TELITHROMYCIN], for which the 50% inhibitory concentration (IC50) amounted to 4 µM. Turning to `Cc1cccc(C)c1OCC(=O)N[C@@H](Cc1ccccc1)[C@@H](O)C[C@H](Cc1ccccc1)NC(=O)[C@H](C(C)C)N1CCCNC1=O` [LOPINAVIR], the 50% inhibitory concentration (IC50) turned out to be 17.3 µM.

Turning to `Cc1ccnc2c1NC(=O)c1cccnc1N2C1CC1` [NEVIRAPINE], the IC50 was over 135 µM. Then `C=C[C@H]1C[N@@]2CC[C@H]1C[C@@H]2[C@@H](O)c1ccnc2ccc(OC)cc12` [QUINIDINE], with over 135 µM; and `COc1cccc2c1C(=O)c1c(O)c3c(c(O)c1C2=O)C[C@@](O)(C(=O)CO)C[C@@H]3O[C@H]1C[C@H](N)[C@H](O)[C@H](C)O1` [DOXORUBICIN], with over 135 µM. For the compound `COc1cc2nc(N3CCN(C(=O)c4ccco4)CC3)nc(N)c2cc1OC` [PRAZOSIN], the half-maximal inhibitory concentration (IC50) is over 135 µM. For `CCc1nn(CCCN2CCN(c3cccc(Cl)c3)CC2)c(=O)n1CCOc1ccccc1` [NEFAZODONE], the IC50 came out at 6.1 µM. Turning to `Cc1cccc(Nc2cc(Cl)nc(SCC(=O)O)n2)c1C` [PIRINIXIC ACID], the IC50 is 75 to 105 µM. Then `CCCCNc1cc(C(=O)O)cc(S(N)(=O)=O)c1Oc1ccccc1` [BUMETANIDE], with over 135 µM; and `CN1CC[C@]23c4c5ccc(O)c4O[C@H]2[C@@H](O)C=C[C@H]3[C@H]1C5` [MORPHINE], with over 135 µM. As for `O=c1n(CCCN2CCN(c3cccc(Cl)c3)CC2)nc2ccccn12` [TRAZODONE], the 50% inhibitory concentration (IC50) is over 135 µM. Consider `Nc1nc2c(ncn2COCCO)c(=O)[nH]1` [ACYCLOVIR], for which the IC50 was over 135 µM. Take `CCOc1ccc(NC(C)=O)cc1` [PHENACETIN]: the half-maximal inhibitory concentration (IC50) is over 135 µM. `CCCc1nc2c(C)cc(-c3nc4ccccc4n3C)cc2n1Cc1ccc(-c2ccccc2C(=O)O)cc1`: the IC50 came out at 16.2 µM.

On to `COc1ccc(C(CN(C)C)C2(O)CCCCC2)cc1` (centres undefined) [VENLAFAXINE], for which the IC50 was over 135 µM. Regarding `CN(C)CCC(c1ccc(Cl)cc1)c1ccccn1` (centres undefined) [CHLORPHENIRAMINE], the half-maximal inhibitory concentration (IC50) was over 135 µM. With `CC1=C(CC(=O)O)c2cc(F)ccc2/C1=C\c1ccc([S+](C)[O-])cc1` (centres undefined), the IC50 is over 135 µM. Then `COc1ccc2[nH]c([S+]([O-])Cc3ncc(C)c(OC)c3C)nc2c1` (centres undefined) [OMEPRAZOLE], with 75 to 105 µM; and `O=C(O)c1ccccc1-c1c2ccc(=O)cc-2oc2cc(O)ccc12`, with over 135 µM. As for `O=C(c1ccc(F)cc1)C1CCN(CCn2c(=O)[nH]c3ccccc3c2=O)CC1` [KETANSERIN], the half-maximal inhibitory concentration (IC50) is over 135 µM. For the compound `Cc1ccc(NC(=O)c2ccc(CN3CCN(C)CC3)cc2)cc1Nc1nccc(-c2cccnc2)n1` [IMATINIB], the concentration for half-maximal inhibition (IC50) was found to be 25.1 µM. For the compound `CCc1ccc(CCOc2ccc(CC3SC(=O)NC3=O)cc2)nc1` (centres undefined) [PIOGLITAZONE], the IC50 amounted to 0.4 µM. On to `CC(=O)O[C@H]1C[C@@]2(C)[C@@H](C[C@@H](O)[C@H]3[C@@]4(C)CC[C@@H](O)[C@@H](C)[C@@H]4CC[C@@]32C)/C1=C(\CCC=C(C)C)C(=O)O` [FUSIDIC ACID], for which the IC50 was 10.1 µM. Take `S=C=Nc1cccc2ccccc12` [1-NAPHTHYLISOTHIOCYANATE]: the IC50 lay in the range of 60 to 75 µM. For the compound `CS(=O)(=O)CCNCc1ccc(-c2ccc3ncnc(Nc4ccc(OCc5cccc(F)c5)c(Cl)c4)c3c2)o1` [LAPATINIB], the IC50 came to 6.5 µM. On to `C[C@@H]1C[C@H]2[C@@H]3CCC4=CC(=O)C=C[C@]4(C)[C@@]3(F)[C@@H](O)C[C@]2(C)[C@@]1(O)C(=O)CO` [DEXAMETHASONE], for which the IC50 was over 135 µM. For `O=C1CN=C(c2ccccc2)c2cc([N+](=O)[O-])ccc2N1` [NITRAZEPAM] the value was over 135 µM; for `CC(=O)CCCCn1c(=O)c2c(ncn2C)n(C)c1=O` [PENTOXIFYLLINE], over 135 µM; for `N=C(N)NC(=O)Cc1c(Cl)cccc1Cl` [GUANFACINE], over 135 µM. With `CN1CCC[C@H]1c1cccnc1` [NICOTINE], the IC50 was over 135 µM. Consider `N[C@@H](CC(=O)N1CCn2c(nnc2C(F)(F)F)C1)Cc1cc(F)c(F)cc1F` [SITAGLIPTIN], for which the IC50 was over 135 µM.

In the case of `O=c1c(O)c(-c2ccc(O)c(O)c2)oc2cc(O)cc(O)c12` [QUERCETIN], the half-maximal inhibitory concentration (IC50) was over 135 µM.

For the compound `CC(C)OC(=O)C(C)(C)Oc1ccc(C(=O)c2ccc(Cl)cc2)cc1` [FENOFIBRATE], the IC50 amounted to 15.3 µM. For `CC(C)[C@@H]1NC(=O)[C@H](C)OC(=O)[C@@H](C(C)C)NC(=O)[C@@H](C(C)C)OC(=O)[C@H](C(C)C)NC(=O)[C@H](C)OC(=O)[C@@H](C(C)C)NC(=O)[C@@H](C(C)C)OC(=O)[C@H](C(C)C)NC(=O)[C@H](C)OC(=O)[C@@H](C(C)C)NC(=O)[C@@H](C(C)C)OC1=O` [VALINOMYCIN] the value was 1.6 µM; for `CC(CN1c2ccccc2Sc2ccccc21)N(C)C` (centres undefined) [PROMETHAZINE], over 135 µM; for `O=C(NCCN1CCOCC1)c1ccc(Cl)cc1` [MOCLOBEMIDE], over 135 µM.

In the case of `Nc1nc(N)c2nc(-c3ccccc3)c(N)nc2n1`, the IC50 is over 135 µM. Consider `[H]/N=C(/N)N/C(=N/[H])NCCc1ccccc1` [PHENFORMIN], for which the IC50 is over 135 µM.

Consider `Oc1ccc2c(c1)[C@@]13CCCC[C@@]1(O)[C@@H](C2)N(CC1CCC1)CC3` [BUTORPHANOL], for which the IC50 is over 135 µM. `CCOC(=O)Nc1ccc(NCc2ccc(F)cc2)nc1N` [FLUPIRTINE]: the concentration for half-maximal inhibition (IC50) is 35.5 µM.

For `Cc1ccc(-c2ncc(Cl)cc2-c2ccc(S(C)(=O)=O)cc2)cn1` [ETORICOXIB], the IC50 lay within 45 to 60 µM. Take `N=C(N)c1ccc(OCCCCCOc2ccc(C(=N)N)cc2)cc1` [PENTAMIDINE]: the IC50 is over 135 µM.
